According to paper PMC3277400 (Nature Medicine, 2011):

Molecular target: TcdB (Clostridioides difficile, UniProt P18177)
Type: biochemical

Chain of TcdB (P18177 2-2366 limits assumed): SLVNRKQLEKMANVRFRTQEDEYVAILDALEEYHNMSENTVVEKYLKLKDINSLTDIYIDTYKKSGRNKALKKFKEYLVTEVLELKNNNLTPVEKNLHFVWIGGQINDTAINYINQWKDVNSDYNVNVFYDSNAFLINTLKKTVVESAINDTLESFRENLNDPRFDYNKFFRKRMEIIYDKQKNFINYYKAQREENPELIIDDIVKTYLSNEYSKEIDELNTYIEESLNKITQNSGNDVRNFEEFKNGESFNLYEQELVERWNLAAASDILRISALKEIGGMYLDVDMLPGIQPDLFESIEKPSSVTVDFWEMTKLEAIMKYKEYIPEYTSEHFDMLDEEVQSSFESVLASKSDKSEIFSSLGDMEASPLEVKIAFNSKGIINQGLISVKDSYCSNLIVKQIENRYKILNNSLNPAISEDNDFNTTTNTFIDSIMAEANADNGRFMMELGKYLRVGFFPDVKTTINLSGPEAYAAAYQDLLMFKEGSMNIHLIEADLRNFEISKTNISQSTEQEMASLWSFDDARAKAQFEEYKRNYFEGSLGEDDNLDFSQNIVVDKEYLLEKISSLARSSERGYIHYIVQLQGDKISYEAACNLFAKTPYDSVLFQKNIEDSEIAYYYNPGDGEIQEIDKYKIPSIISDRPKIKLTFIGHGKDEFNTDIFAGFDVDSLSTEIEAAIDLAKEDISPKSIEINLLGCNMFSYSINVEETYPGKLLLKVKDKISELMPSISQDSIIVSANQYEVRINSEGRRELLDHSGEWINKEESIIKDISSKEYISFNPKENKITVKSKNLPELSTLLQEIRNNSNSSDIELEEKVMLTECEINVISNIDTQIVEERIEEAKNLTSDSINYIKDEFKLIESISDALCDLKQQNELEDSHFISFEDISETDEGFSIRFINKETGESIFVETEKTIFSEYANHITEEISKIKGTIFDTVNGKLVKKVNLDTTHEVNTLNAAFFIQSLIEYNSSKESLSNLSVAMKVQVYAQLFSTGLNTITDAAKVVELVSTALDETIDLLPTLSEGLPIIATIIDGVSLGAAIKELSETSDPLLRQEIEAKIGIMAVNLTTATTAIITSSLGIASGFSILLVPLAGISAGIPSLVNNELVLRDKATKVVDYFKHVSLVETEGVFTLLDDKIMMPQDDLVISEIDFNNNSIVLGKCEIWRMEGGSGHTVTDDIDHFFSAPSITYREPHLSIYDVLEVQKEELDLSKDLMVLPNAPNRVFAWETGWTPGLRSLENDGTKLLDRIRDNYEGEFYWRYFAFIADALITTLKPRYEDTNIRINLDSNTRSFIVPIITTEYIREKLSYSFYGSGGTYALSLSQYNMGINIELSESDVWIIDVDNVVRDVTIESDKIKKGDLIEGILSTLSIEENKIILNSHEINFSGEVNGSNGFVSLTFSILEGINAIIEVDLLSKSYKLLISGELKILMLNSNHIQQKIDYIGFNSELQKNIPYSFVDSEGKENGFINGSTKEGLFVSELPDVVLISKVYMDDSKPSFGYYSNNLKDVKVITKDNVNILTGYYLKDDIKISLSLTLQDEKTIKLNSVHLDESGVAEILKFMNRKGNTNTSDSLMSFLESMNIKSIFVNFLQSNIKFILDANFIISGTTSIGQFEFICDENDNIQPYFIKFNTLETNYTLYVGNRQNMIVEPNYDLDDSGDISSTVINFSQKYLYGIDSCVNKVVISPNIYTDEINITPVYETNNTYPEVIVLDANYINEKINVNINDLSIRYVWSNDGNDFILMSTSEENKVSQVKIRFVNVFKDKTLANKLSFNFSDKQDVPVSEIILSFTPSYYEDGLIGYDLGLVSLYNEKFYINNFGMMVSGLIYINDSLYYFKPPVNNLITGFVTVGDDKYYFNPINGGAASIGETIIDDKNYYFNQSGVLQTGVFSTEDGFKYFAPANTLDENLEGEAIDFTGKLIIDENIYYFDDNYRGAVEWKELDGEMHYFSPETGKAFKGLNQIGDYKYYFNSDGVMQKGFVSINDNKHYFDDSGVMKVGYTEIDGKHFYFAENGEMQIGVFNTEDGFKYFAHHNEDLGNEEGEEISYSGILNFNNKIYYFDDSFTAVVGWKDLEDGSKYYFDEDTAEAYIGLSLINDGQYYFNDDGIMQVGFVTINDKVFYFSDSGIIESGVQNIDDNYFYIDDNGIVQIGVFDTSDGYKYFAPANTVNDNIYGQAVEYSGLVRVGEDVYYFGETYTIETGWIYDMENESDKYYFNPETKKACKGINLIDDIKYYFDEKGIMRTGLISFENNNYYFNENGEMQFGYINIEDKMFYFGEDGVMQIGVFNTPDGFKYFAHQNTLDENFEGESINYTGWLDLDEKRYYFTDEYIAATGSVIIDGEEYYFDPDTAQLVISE

O=P(O)(O)O[C@H]1[C@H](OP(=O)(O)O)[C@@H](OP(=O)(O)O)[C@H](OP(=O)(O)O)[C@@H](OP(=O)(O)O)[C@H]1OP(=O)(O)O [InsP6]
InsP6-induced autocleavage, gel and immunoblot: Autocleavage of native TcdB versus E743A mutant with increasing InsP6 concentrations
